The subject of one test is tryptase purified from human lung or skin tissue preparations or human mast cell line (HMC-1). As to the kind of experiment: In vitro Tryptase Inhibition Assay. The following applies: substrate tosyl-Gly-Pro-Lys-p-nitroanilide; Tris-HCl pH 8.2; zinc chloride 150 μM; 1 hour preincubation at room temperature; read-out: Ki (apparent inhibition constant, tryptase inhibitory activity). In kind it is biochemical. On the procedure: Tryptase solution ([…]) was prepared by dissolving tryptase purified from human lung or skin tissue preparations or human mast cell line (HMC-1) or obtained from commercial sources, e.g., ICN Biomeidals, Irvine, Calif., Athens Research & Technology, Athens, Ga., etc., in a solvent mixture comprising: 10 mM 2-N-morpholinoethane sulfonic acid, 2 mM CaCl2, 20% glycerol and 50 µg/mL heparin. Substrate solution containing 2 mM synthetic tripeptide (tosyl-Gly-Pro-Lys-p-nitroanilide) was obtained from Sigma. Test Compound solutions were prepared by diluting a stock solution (1 mg of test Compound in 200 μL of dimethylsulfoxide (DMSO)) by ten-fold into assay buffer (comprising: Tris-HCl (pH 8.2), 50 mM; NaCl, 100 MM; 0.05% polyoxyethylenesorbitan monolaurate (Tween-20®); and zinc chloride, 150 μM) and then making seven additional three-fold dilutions into 10% DMSO in assay buffer.
Aliquots (50 μL) from each of the eight dilutions of test compound solution were added to separate wells in a 96-well U-bottom microtiter plate. Typtase solution (25 μL) was added to each well and the solutions were mixed 1 hour at room temperature. Substrate solution (25 μL) was added to initiate the enzymatic reaction and the microtiter plates were immediately transferred to a UVIMAX Kinetic Microplate Reader (Molecular Devices). The hydrolysis of the chromogenic substrate was followed spectrophotometrically at 405 nanometers for five minutes. Initial velocity measurements were calculated from the progress curves by kinetic analysis program (BatchKi; Petr Kuzmic, University of Wisconsin, Madison, Wis.). Apparent inhibition constants (K) were calculated from the enzyme progress curves using standard mathematical models.
Turning to `CC(C)COC(=O)c1ccccc1OCCNC(=O)c1ccc2nc(C(C)c3nc4cc(O)ccc4[nH]3)n(C)c2c1` (stereo not shown) [Compound 43, isobutyl 2-(2-{2-[1-(5-hydroxy-1H-benzoimidazol-2-yl)ethyl]-3-methyl-3H-benzoimidazol-5-ylcarbonylamino}ethoxy)benzoate], the Ki was found to be 2 nM.
For the compound `CC(c1nc2cc(NC(=N)N)ccc2[nH]1)c1nc2ccc(C(=O)NCCOc3ccc(Cl)cc3C(N)=O)cc2n1C` (stereo not shown) [Compound 250, 2-[1-(5-guanidino-1H-benzoimidazol-2-yl)ethyl]-N-[2-(2-carbamoyl-4-chlorophenoxy)ethyl]-3-methyl-3H-benzoimidazole-5-carboxamide], the Ki was 0.4 nM.
In the case of `CC(c1nc2cc(NC(=N)N)ccc2[nH]1)c1nc2ccc(C(=O)NCCOc3cc(Cl)ccc3C(=O)O)cc2n1C` (stereo not shown) [Compound 251, 4-chloro-2-(2-{2-[1-(5-guanidino-1H-benzoimidazol-2-yl)ethyl]-3-methyl-3H-benzoimidazol-5-ylcarbonylamino}ethoxy)benzoic acid], the Ki came to 0.8 nM.
The same measure, in the same setting: to `Cn1c(Cc2nc3c([nH]2)CCC(CN)C3)nc2ccc(C(=O)NCCc3cccc4ccccc34)cc21` (stereo not shown) [Compound 112, 2-(5-aminomethyl-4,5,6,7-tetrahydro-1H-benzoimidazol-2-ylmethyl)-3-methyl-N-(2-naphth-1-ylethyl)-3H-benzoimidazole-5-carboxamide] belongs 0.05 nM; to `Cn1c(Cc2nc3cc(CN)ccc3[nH]2)nc2cc(C(=O)NCCCN)ccc21` [Compound 12, 2-(5-Aminomethyl-1H-benzoimidazol-2-ylmethyl)-N-(3-aminopropyl)-1-methyl-1H-benzoimidazole-5-carboxamide], 29000 nM; to `CC(c1nc2cc(NC(=N)N)ccc2[nH]1)c1nc2ccc(C(=O)NCCOc3ccccc3C(N)=O)cc2n1C` (stereo not shown) [Compound 249, 2-[1-(5-guanidino-1H-benzoimidazol-2-yl)ethyl]-N-[2-(2-carbamoylphenoxy)ethyl]-3-methyl-3H-benzoimidazole-5-carboxamide], 0.7 nM.
On the same count and under the same terms, next, `Cn1c(Cc2nc3cc(CN)ccc3[nH]2)nc2ccc(C(=O)NCCc3cccc4ccccc34)cc21` [Compound 102, 2-(5-aminomethyl-1H-benzoimidazol-2-ylmethyl)-3-methyl-N-(2-naphth-1-ylethyl)-3H-benzoimidazole-5-carboxamide]: 0.07 nM; `CCCOC(=O)c1ccccc1OCCNC(=O)c1ccc2nc(C(C)c3nc4cc(O)ccc4[nH]3)n(C)c2c1` (stereo not shown) [Compound 42, propyl 2-(2-{2-[1-(5-hydroxy-1H-benzoimidazol-2-yl)ethyl]-3-methyl-3H-benzoimidazol-5-ylcarbonylamino}ethoxy)benzoate]: 8 nM.
Still for that read-out and setting: to `CCOC(=O)c1ccccc1CCCC(=O)N1CCc2[nH]c(C(C)c3nc4cc(NC(=N)N)ccc4[nH]3)nc2C1` (stereo not shown) [Compound 29, Ethyl 2-(4-{2-[1-(5-guanidino-1H-benzoimidazol-2-yl)ethyl]-1,4,6,7-tetrahydroimidazo[4,5-c]pyridin-5-yl}-4-oxobutyl)benzoate] belongs 0.8 nM; to `CC(=N)N1CCc2[nH]c(Cc3nc4ccc(C(=O)NCCc5cccc6ccccc56)cc4n3C)nc2C1` [Compound 115, 2-[5-(1-iminoethyl)-4,5,6,7-tetrahydro-1H-imidazo[4,5-c]pyridin-2-ylmethyl]-3-methyl-N-(2-naphth-1-ylethyl)-3H-benzoimidazole-5-carboxamide], 3 nM; to `Cn1c(Cc2nc3c([nH]2)CCN(C=N)C3)nc2ccc(C(=O)NCCc3cccc4ccccc34)cc21` [Compound 117, 2-(5-iminomethyl-4,5,6,7-tetrahydro-1H-imidazo[4,5-c]pyridin-2-ylmethyl)-3-methyl-N-(2-naphth-1-ylethyl)-3H-benzoimidazole-5-carboxamide], 8 nM.
For `NCc1ccc2[nH]c(Cc3nc4cc(OCCCCc5ccccc5)ccc4[nH]3)nc2c1` [Compound 26, C-{2-[5-(4-phenylbutoxy)-1H-benzoimidazol-2-ylmethyl]-1H-benzoimidazol-5-yl}methylamine], the Ki turned out to be 33000 nM.
With `CC(c1nc2c(F)cc(F)c(F)c2[nH]1)c1nc2ccc(C(=O)NCCOc3ccccc3C(=O)O)cc2n1C` (stereo not shown) [Compound 80, 2-(2-{2-[1-(4,6,7-Trifluoro-1H-benzoimidazol-2-yl)ethyl]-3-methyl-3H-benzoimidazol-5-ylcarbonylamino}ethoxy)benzoic acid], the Ki worked out at 10 nM.
`CC(=N)N1CCc2[nH]c(C(C)c3nc4ccc(C(=O)NCCc5cccc6ccccc56)cc4n3C)nc2C1` (stereo not shown) [Compound 169, 2-{1-[5-(1-iminoethyl)-4,5,6,7-tetrahydro-1H-imidazo[4,5-c]pyridin-2-yl]ethyl}-3-methyl-N-(2-naphth-1-ylethyl)-3H-benzoimidazole-5-carboxamide]: the Ki was 1 nM.
For the compound `CC(=N)N1CCc2[nH]c(C(C)c3nc4ccc(C(=O)NCCOc5ccccc5-c5nnn[nH]5)cc4n3C)nc2C1` (stereo not shown) [Compound 225, 2-{1-[5-(1-iminoethyl)-4,5,6,7-tetrahydro-1H-imidazo[4,5-c]pyridin-2-yl]ethyl}-3-methyl-N-[2-(2-tetrazolylphenoxy)ethyl]-3H-benzoimidazole-5-carboxamide], the Ki was 8 nM.
Same read-out and setting: next, `CC(c1nc2cc(NC(=N)N)ccc2[nH]1)c1nc2ccc(C(=O)NCCOc3ccc(Cl)cc3C(=O)O)cc2n1C` (stereo not shown) [Compound 252, 5-chloro-2-(2-{2-[1-(5-guanidino-1H-benzoimidazol-2-yl)ethyl]-3-methyl-3H-benzoimidazol-5-ylcarbonylamino}ethoxy)benzoic acid]: 0.4 nM.

The next test concerns antigen challenged sheep. As to the kind of experiment: Sheep Model of Asthma (allergic sheep, antigen challenge). In kind it is in vivo. To be noted: 24 hours after antigen challenge; 1 mg aerosol 0.5 hours before, 4 hours after and 24 hours after challenge; n=3; baseline 15, control group fell to 7. The source says: The allergic sheep model of asthma was employed for the in vivo evaluation of the compounds of the invention as antiasthmatics. These methods have been published previously (see Abraham et al. (1983) Am. Rev. Respir. Dis. 128:839-844; Allegra et al. (1983) J. Appl. Physiol. 55:726-730; Russi et al. (1985) J. Appl. Physiol. 59:1416-1422; Soler et al. ((1989) J. Appl. Physiol. 67:406-413. Each sheep serves as its own control. Body weights for these animals ranged from 20-50 kilograms.
In these studies, 1 mg of Compound 13 was dissolved in 3 mL distilled water, and the total solution delivered as an aerosol 0.5 hours before, 4 hours after, and 24 hours after antigen challenge (total dose=1 mg; n=3).
Twenty-four hours after antigen challenge in both the control and drug trial, the sheep developed airway hyper-responsiveness. Airway hyper-responsiveness is expressed as PC400, the concentration of carbachol that causes a 400% increase in SRL; therefore, a decrease in PC400 indicates hyper-responsiveness. […] The number of breath units fell to 7 for those animals in the control group.
For the compound `NCc1ccc2[nH]c(Cc3nc4cc(C(=O)NCCc5cccc6ccccc56)ccc4[nH]3)nc2c1` [Compound 13], the “PC400 (airway hyper-responsiveness; concentration of carbachol that causes a 400% increase in SRL)” value is reported as about 15 breath units.

The test is the same for the next values; noted with them: antigen challenged sheep, aerosol treatment.
In the case of `NCc1ccc2[nH]c(Cc3nc4cc(C(=O)NCCc5cccc6ccccc56)ccc4[nH]3)nc2c1` [Compound 13], the airway function entry is on record as “significant improvement in airway function”.

The same test, now with this note: antigen challenged sheep, aerosol, 24 hours after challenge.
Turning to `NCc1ccc2[nH]c(Cc3nc4cc(C(=O)NCCc5cccc6ccccc56)ccc4[nH]3)nc2c1` [Compound 13], the “onset of airway hyper-responsiveness” value is listed as “block the onset of hyper-responsiveness”.

These data come from patent US6562854B2, “Compositions comprising a substituted benzimidazole useful for treating immunomediated inflammatory disorders” (Axys Pharmaceuticals, Inc., priority 1994, dated 2003).
